Like-named read-outs stand apart in the source and are kept apart here.
Experiments:
Type in all cases: biochemical
NEU1, NEU2, NEU3, NEU4 = experiment: Isoenzyme specificity/selectivity from 4MU-NANA IC50 across the four human neuraminidases
NEU1 = target: T1, NEU1 (Homo sapiens, UniProt Q99519); experiment: IC50 inhibition assay using 4MU-NANA as the substrate, NEU1
T1 construct: made in house; host or cells: HEK293 (lentiviral transduction), crude lysate
Description: Two weeks after transduction cells were harvested and a crude lysate showing ˜200 nmol/h mg of sialidase activity used in experiments.
Assays were performed with duplicates for each point and IC50 was obtained by plotting the data with Graphpad™ Prism 5.0.

NEU4 = target: T2, NEU4 (Homo sapiens, UniProt Q8WWR8); experiment: IC50 inhibition assay using 4MU-NANA as the substrate, NEU4; set-up: GST; made in house; host or cells: E. coli; settings: 4MU-NANA as the substrate; read-out: IC50 NEU4
T2 sequence (Q8WWR8 1-484): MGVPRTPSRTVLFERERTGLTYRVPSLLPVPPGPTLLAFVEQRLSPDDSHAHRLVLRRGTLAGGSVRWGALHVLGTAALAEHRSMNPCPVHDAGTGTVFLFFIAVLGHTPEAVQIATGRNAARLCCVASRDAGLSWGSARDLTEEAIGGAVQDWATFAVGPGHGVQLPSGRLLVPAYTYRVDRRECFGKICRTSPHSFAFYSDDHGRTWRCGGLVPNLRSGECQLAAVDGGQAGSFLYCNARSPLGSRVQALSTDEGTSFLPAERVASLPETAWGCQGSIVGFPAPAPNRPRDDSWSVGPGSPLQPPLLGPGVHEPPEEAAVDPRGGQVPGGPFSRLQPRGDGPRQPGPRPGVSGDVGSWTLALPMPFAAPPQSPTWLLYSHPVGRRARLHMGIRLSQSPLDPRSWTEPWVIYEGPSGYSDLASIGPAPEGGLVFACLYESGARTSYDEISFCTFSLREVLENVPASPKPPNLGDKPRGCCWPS

NEU3 = target: T3, NEU3 (Homo sapiens, UniProt Q9UQ49); experiment: IC50 inhibition assay using 4MU-NANA as the substrate, NEU3; set-up: MBP (N); made in house; host or cells: E. coli; settings: 4MU-NANA as the substrate; read-out: IC50 NEU3
T3 sequence (Q9UQ49 1-428): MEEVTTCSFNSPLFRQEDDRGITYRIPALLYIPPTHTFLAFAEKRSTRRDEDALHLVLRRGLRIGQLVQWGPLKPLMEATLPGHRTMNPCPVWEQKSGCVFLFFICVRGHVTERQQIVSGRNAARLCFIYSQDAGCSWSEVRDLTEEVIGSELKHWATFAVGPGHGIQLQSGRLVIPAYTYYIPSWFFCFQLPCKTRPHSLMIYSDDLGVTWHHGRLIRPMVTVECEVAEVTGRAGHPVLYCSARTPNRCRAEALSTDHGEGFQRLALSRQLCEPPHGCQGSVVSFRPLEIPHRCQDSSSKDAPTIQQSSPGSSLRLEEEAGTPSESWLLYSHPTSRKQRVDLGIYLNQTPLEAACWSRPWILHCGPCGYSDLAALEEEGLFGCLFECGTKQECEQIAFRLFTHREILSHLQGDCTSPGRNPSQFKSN

[1] = isoenzyme(s) the compound is specific for, dual (bispecific) when ratio of IC50 is about 3 or less
[2] = 4MU-NANA as the substrate, read-out: IC50 NEU1

SMILES	Target (NEU1, NEU2, NEU3, NEU4; [1])	IC50 (NEU1; [2])	IC50 (NEU4)	IC50 (NEU3)	Target (NEU1, NEU2, NEU3, NEU4)	IC50 (NEU1; target isoenzyme NEU1, 4MU-NANA substrate, read-out: IC50 [μM] NEU1)
CCCCCC(=O)N[C@H]1[C@H]([C@H](O)[C@H](O)CNC(=O)CC)OC(C(=O)O)=C[C@@H]1O [compound 69, 5-Hexanamido-9-propionamido-2,6-anhydro-3,5-dideoxy-d-glycero-d-galacto-non-2-enonic acid]	NEU1	0.4 ± 0.1 µM	270 ± 70 µM			
CCCCCC(=O)N[C@H]1[C@H]([C@H](O)[C@H](O)CNC(C)=O)OC(C(=O)O)=C[C@@H]1O [compound 68, 5-Hexanamido-9-acetamido-2,6-anhydro-3,5-dideoxy-D-glycero-D-galacto-non-2-enonic acid]	NEU1	0.14 ± 0.01 µM	170 ± 100 µM			
Nc1ccc(-c2cn(CC(=O)N[C@@H]3C(O)C=C(C(=O)O)OC3C(O)C(O)CO)nn2)cc1 (stereo partly shown) [compound 46]		> 500 µM	130 ± 20 µM	430 ± 100 µM		
CC(C)C(=O)N[C@H]1[C@H]([C@H](O)[C@H](O)CO)OC(C(=O)O)=C[C@@H]1O [compound 34, 5-isobutyramido-2,6-anhydro-3,5-dideoxy-D-glycero-D-galacto-non-2-enonic acid]	NEU1	5.3 ± 0.8 µM	71 ± 17 µM	> 500 µM		
CCCCCC(=O)NCC(O)C(O)C1OC(C(=O)O)=CC(O)[C@H]1NC(C)=O (stereo partly drawn) [compound 51, 5-Acetamido-9-hexanamido-2,6-anhydro-3,5-dideoxy-D-glycero-D-galacto-non-2-enonic acid]			290 ± 30 µM	83 ± 9 µM	NEU1	
Cc1ccc(-c2cn(CC(=O)N[C@@H]3C(O)C=C(C(=O)O)OC3C(O)C(O)CO)nn2)cc1 (stereo partly shown) [compound 42]		> 500 µM	110 ± 20 µM	> 500 µM		
CC(=O)N[C@H]1[C@H]([C@H](O)[C@H](O)Cn2cc(-c3ccc(N(C)C)cc3)nn2)OC(C(=O)O)=C[C@@H]1O [7a]	NEU3/ NEU4	190 ± 40 µM	28 ± 3 µM	9.3 ± 0.8 µM		
CC(=O)N[C@@H]1C(O)C=C(C(=O)O)OC1C(O)C(O)CNC(=O)CCC(C)C (stereo partly drawn) [compound 55, 5-Acetamido-9-(4-methylpentanamido)-2,6-anhydro-3,5-dideoxy-D-glycero-D-galacto-non-2-enonic acid]	NEU1	3.2 ± 0.3 µM	150 ± 50 µM	54 ± 6 µM		
CC(=O)N[C@H]1[C@H]([C@H](O)[C@H](O)CNC(=O)c2ccc(N)cc2)OC(C(=O)O)=C[C@@H]1O [compound 59, 5-Acetamido-9-(4-amino)benzamido-2,6-anhydro-3,5-dideoxy-b-glycero-D-galacto-non-2-enonic acid]	NEU1/ NEU3	29 ± 5 µM	210 ± 80 µM	31 ± 6 µM		
CCCCCC(=O)N[C@H]1[C@H]([C@H](O)[C@H](O)CO)OC(C(=O)O)=C[C@@H]1O [compound 32, 5-Hexanamido-2,6-anhydro-3,5-dideoxy-D-glycero-D-galacto-non-2-enonic acid]	NEU1	0.42 ± 0.06 µM	440 ± 150 µM			0.4 µM
CCCCCc1cn(C[C@@H](O)[C@@H](O)[C@@H]2OC(C(=O)O)=C[C@H](O)[C@H]2NC(C)=O)nn1 [compound 63, 5-Acetamido-9-(4-pentyl)triazolyl-2,6-anhydro-3,5-dideoxy-d-glycero-d-galacto-non-2-enonic acid]	NEU3/ NEU4		2.6 ± 0.6 µM	6.7 ± 1.2 µM		
CCCCC(=O)N[C@H]1C=C(C(=O)O)O[C@@H]([C@H](O)[C@H](O)CO)[C@@H]1NC(C)=O [25b, 5-Acetamido-2,6-anhydro-4-pentanamido-3,4,5-trideoxy-D-glycero-D-galacto-non-2-enonic acid]		> 500 µM	> 500 µM	> 500 µM		
CCCCC(C)C(=O)N[C@H]1[C@H]([C@H](O)[C@H](O)CNC(C)=O)OC(C(=O)O)=C[C@@H]1O (mixture of isomers) [compound 74, 5-(2-Methyl)hexanamido(S/R)-9-acetanamido-2,6-anhydro-3,5-dideoxy-d-glycero-d-galacto-non-2-enonic acid]		0.42 ± 0.07 µM		< 1 µM		
CCCCC(C)C(=O)N[C@H]1[C@H]([C@H](O)[C@H](O)CO)OC(C(=O)O)=C[C@@H]1O (mixture of isomers) [compound 72, 5-(2-Methyl)hexanamido(S/R)-2,6-anhydro-3,5-dideoxy-d-glycero-d-galacto-non-2-enonic acid]		0.55 ± 0.07 µM		< 1 µM		
CC(=O)N[C@@H]1C(O)C=C(C(=O)O)OC1C(O)C(O)CNC(=O)C(C)C (stereo partly drawn) [compound 53, 5-Acetamido-9-isobutyramido-2,6-anhydro-3,5-dideoxy-D-glycero-D-galacto-non-2-enonic acid]			230 ± 60 µM	96 ± 28 µM		
CC(=O)N[C@H]1[C@H]([C@H](O)[C@H](O)CO)OC(C(=O)O)=C[C@@H]1NC(=O)C1CC1 [25c, 5-Acetamido-2,6-anhydro-4-cyclopropanecarboxamido-3,4,5-trideoxy-b-glycero-D-galacto-non-2-enonic acid]		> 500 µM	> 500 µM	> 500 µM		
CCCC(=O)NCC(O)C(O)C1OC(C(=O)O)=CC(O)[C@H]1NC(C)=O (stereo partly drawn) [compound 49, 5-Acetamido-9-butyramido-2,6-anhydro-3,5-dideoxy-D-glycero-D-galacto-non-2-enonic acid]		4 ± 0.5 µM		250 ± 90 µM		
CC(C)CCC(=O)N[C@H]1[C@H]([C@H](O)[C@H](O)CO)OC(C(=O)O)=C[C@@H]1NC(=N)N [compound 71, 5-(4-methylpentanamido)-2,6-anhydro-4-guanidino-3,4,5-trideoxy-D-glycero-D-galacto-non-2-enonic acid]		14 ± 2 µM	47 ± 7 µM	150 ± 20 µM		
CC(=O)N[C@@H]1C(O)C=C(C(=O)O)OC1C(O)C(O)CNC(=O)CC(C)C (stereo partly drawn) [compound 54, 5-Acetamido-9-(3-methylbutanamido)-2,6-anhydro-3,5-dideoxy-D-glycero-D-galacto-non-2-enonic acid]		2.5 ± 0.3 µM	130 ± 40 µM	72 ± 20 µM		
CCCCC(CC)C(=O)N[C@H]1[C@H]([C@H](O)[C@H](O)CNC(C)=O)OC(C(=O)O)=C[C@@H]1O (mixture of isomers) [compound 73, 5-(2-Ethyl)hexanamido(S/R)-9-acetanamido-2,6-anhydro-3,5-dideoxy-d-glycero-d-galacto-non-2-enonic acid]		1.8 ± 0.2 µM				
CCC(=O)N[C@H]1C=C(C(=O)O)O[C@@H]([C@H](O)[C@H](O)CO)[C@@H]1NC(C)=O [25a, 5-Acetamido-2,6-anhydro-4-propionamido-3,4,5-trideoxy-D-glycero-D-galacto-non-2-enonic acid]		> 500 µM	> 500 µM	> 500 µM		
CCCCC(=O)N[C@H]1[C@H]([C@H](O)[C@H](O)CNC(C)=O)OC(C(=O)O)=C[C@@H]1O [compound 67, 5-Pentanamido-9-acetamido-2,6-anhydro-3,5-dideoxy-D-glycero-D-galacto-non-2-enonic acid]	NEU1	0.35 ± 0.03 µM	> 500 µM			
CC(=O)N[C@H]1[C@H]([C@H](O)[C@H](O)CO)OC(C(=O)O)=C[C@@H]1NC(=O)C1CCC1 [25d, 5-Acetamido-2,6-anhydro-4-cyclobutanecarboxamido-3,4,5-trideoxy-D-glycero-D-galacto-non-2-enonic acid]		> 500 µM	> 500 µM	> 500 µM		
CCCCC(CC)C(=O)N[C@H]1[C@H]([C@H](O)[C@H](O)CO)OC(C(=O)O)=C[C@@H]1O (mixture of isomers) [compound 75, 5-(2-Ethyl)hexanamido(SIR)-2,6-anhydro-3,5-dideoxy-d-glycero-d-galacto-non-2-enonic acid]		0.58 ± 0.03 µM		< 1 µM		
[N-]=[N+]=NCC(=O)N[C@@H]1C(O)C=C(C(=O)O)OC1C(O)C(O)CO (stereo partly drawn) [compound 40, 5-(N-2-azidoacetyl)-2,3,5-trideoxy-D-glycero-D-galacto-2-nonulopyranosonic acid]		24 ± 2 µM	5.6 ± 0.8 µM	4.4 ± 0.9 µM		

— patent publication US11773129B2, “Methods of preventing or treating atherosclerosis with inhibitors of specific isoenzymes of human neuraminidase” (THE GOVERNORS OF THE UNIVERSITY OF ALBERTA, priority 2017, dated 2023)
